Consider 24 compounds from patent publication US10829452B2, “Histone methyltransferase inhibitors” (GLOBAL BLOOD THERAPEUTICS, INC., priority 2016, dated 2020).

The assay has as its target T1, G9a (Homo sapiens, UniProt Q96KQ7).
T1 sequence (Q96KQ7 1-1210): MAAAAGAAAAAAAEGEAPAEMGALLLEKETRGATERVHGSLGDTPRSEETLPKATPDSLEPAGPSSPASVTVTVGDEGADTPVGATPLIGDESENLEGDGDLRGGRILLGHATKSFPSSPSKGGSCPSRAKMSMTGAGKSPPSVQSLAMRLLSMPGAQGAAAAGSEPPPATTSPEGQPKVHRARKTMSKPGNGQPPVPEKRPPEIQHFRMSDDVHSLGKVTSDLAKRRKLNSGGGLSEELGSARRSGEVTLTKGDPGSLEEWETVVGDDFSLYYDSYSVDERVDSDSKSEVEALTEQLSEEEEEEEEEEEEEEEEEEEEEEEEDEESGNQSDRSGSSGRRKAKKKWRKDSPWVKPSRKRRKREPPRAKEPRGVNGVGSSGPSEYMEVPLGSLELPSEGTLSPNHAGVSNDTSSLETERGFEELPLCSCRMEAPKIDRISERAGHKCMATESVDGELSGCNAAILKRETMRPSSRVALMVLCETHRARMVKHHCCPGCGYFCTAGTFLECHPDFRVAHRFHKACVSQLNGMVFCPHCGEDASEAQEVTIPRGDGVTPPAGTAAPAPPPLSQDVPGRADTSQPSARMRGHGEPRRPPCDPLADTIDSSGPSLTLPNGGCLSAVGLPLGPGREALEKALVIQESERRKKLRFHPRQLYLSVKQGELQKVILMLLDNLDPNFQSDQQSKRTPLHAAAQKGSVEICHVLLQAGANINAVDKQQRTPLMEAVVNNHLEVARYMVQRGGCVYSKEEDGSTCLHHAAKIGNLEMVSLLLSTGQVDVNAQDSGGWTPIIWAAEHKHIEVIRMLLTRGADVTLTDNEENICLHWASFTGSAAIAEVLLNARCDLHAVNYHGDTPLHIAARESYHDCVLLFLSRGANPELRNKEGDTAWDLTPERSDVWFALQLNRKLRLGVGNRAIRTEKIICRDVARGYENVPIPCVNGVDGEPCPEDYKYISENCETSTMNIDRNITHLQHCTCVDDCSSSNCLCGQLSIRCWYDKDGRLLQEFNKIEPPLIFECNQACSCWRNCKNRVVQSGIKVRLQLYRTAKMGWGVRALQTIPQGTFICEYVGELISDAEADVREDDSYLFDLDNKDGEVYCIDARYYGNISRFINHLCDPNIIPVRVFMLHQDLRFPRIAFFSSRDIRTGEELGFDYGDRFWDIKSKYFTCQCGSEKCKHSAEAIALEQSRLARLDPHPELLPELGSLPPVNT
The assay is described as follows: G9a AlphaLISA enzymatic activity assay. Format: biochemical. The settings on record: 0.15 nM G9a, 15 uM S-adenosyl-methionine, 100 nM biotinylated histone 3 peptide (1-21), 1 hour at room temperature; read-out: G9a in (uM) (IC50, concentration that produced 50% inhibition). The text has this: The G9a AlphaLISA assay was used to detect the methyl modifications of a biotinylated histone H3 peptide by the compounds. These modifications are done by the histone methyl transferase activity of the G9a enzyme. The assay consists of reading a chemiluminescent signal at 615 nm; this signal is generated by a laser excitation at 680 nm that transfers a reactive singlet oxygen between the donor beads and acceptor beads. Donor beads are streptavidin conjugated and bind to the biotin on the peptide. Acceptor beads are conjugated with an antibody that recognizes the specific G9a methyl mark on the peptide. If there is a methyl mark on the peptide, the acceptor beads will bind to the peptide. Upon binding, the acceptor beads will be in close proximity (<200 nm) of the donor beads and when the donor beads are excited, the transfer of the oxygen can occur and a strong signal will be generated. If there is no methyl mark, the interaction between beads will not occur and signal will be at background levels.
For the assay, the following buffer was used to set up reactions: 50 mM Tris-HCl pH9, 50 mM NaCl, 0.01% Tween-20 and 1 mM DTT (added fresh prior to starting the reactions). The assay is set up by adding a final concentration of 0.15 nM G9a, 15 uM S-adenosyl-methionine and, 100 nM biotinylated histone 3 peptide (1-21). The reaction is incubated at room temperature for 1 hour, and subsequently quenched by the addition of the acceptor beads (anti-H3k9me2 AlphaLISA acceptor beads, PerkinElmer # AL117) at a final concentration of 20 ug/mL. The acceptor beads are incubated for 1 hour. After 1 hour, the donor beads are added at a final concentration of 20 ug/mL (Alpha Streptavidin donor beads, PerkinElmer #6760002). Donor beads are incubated for 0.5 hours. Both donor and acceptor beads are resuspended in AlphaLISA 5X Epigenetics Buffer 1 Kit (PerkinElmer # AL008) prior to addition to the reaction. All manipulations and incubations with the donor and acceptor beads are done in subdued light. Signal is detected in an EnVision plate reader in Alpha mode (see ACS Med Chem Lett. 2014 Jan. 2; 5(2):205-9. doi: 10.1021/m1400496h. eCollection 2014. Discovery and development of potent and selective inhibitors of histone methyltransferase g9a.)
Percent inhibition was calculated for each compound dilution and the concentration that produced 50% inhibition was calculated. This value is presented as the IC50.
Background: Alpha assays give light when donor and acceptor beads are brought close together.

Counter-ions that a name gives are not always drawn.

Consider `COc1cc2c3c(c(NC(C)C)nc2cc1OCCCN1CCCC1)COC3` [Example 46, 8-methoxy-N-(propan-2-yl)-7-[3-(pyrrolidin-1-yl)propoxy]-1H,3H-furo[3,4-c]quinolin-4-amine], for which the IC50 was 0.26 µM. Regarding `COc1cc2nc(NC3CC3)c3c(c2cc1OCCCN1CCCC1)COC3` [Example 47, N-cyclopropyl-7-methoxy-8-[3-(pyrrolidin-1-yl)propoxy]-1H,3H-furo[3,4-c]quinolin-4-amine], the IC50 came to 3.1 µM. The figure for `COc1cc2c3c(c(NC4CC4)nc2cc1OCCCN1CCCC1)COC3` [Example 48, N-cyclopropyl-8-methoxy-7-[3-(pyrrolidin-1-yl)propoxy]-1H,3H-furo[3,4-c]quinolin-4-amine] is 0.97 µM.

Turning to `COc1cc2c3c(c(NCC4CCC4)nc2cc1OCCCN1CCCC1)CCC3` [Example 49, N-(cyclobutylmethyl)-8-methoxy-7-[3-(pyrrolidin-1-yl)propoxy]-1H,2H,3H-cyclopenta[c]quinolin-4-amine formate], the IC50 came out at 0.046 µM. In the case of `COc1cc2c3c(c(NC(C)C)nc2cc1OCCCN1CCCC1)COCC3` [Example 50, 9-methoxy-N-(propan-2-yl)-8-[3-(pyrrolidin-1-yl)propoxy]-1H,2H,4H-pyrano[3,4-c]quinolin-5-amine formate], the IC50 amounted to 0.24 µM. For `COc1cc2c3c(c(NC(C)C)nc2cc1OCC1CCN(C)C1)CCCC3` (stereo not drawn) [Example 51, 2-methoxy-3-[(1-methylpyrrolidin-3-yl)methoxy]-N-(propan-2-yl)-7,8,9,10-tetrahydrophenanthridin-6-amine formate], the IC50 stood at 0.88 µM. Take `COc1cc2c(cc1OCCCN1CCCC1)nc(NC(C)C)c1cccnc12` [Example 52, 9-methoxy-N-(propan-2-yl)-8-[3-(pyrrolidin-1-yl)propoxy]benzo[h]1,6-naphthyridin-5-amine formate]: the IC50 is 0.34 µM.

In the case of `CNc1nc2cc(OCCCN3CCCC3)c(OC)cc2c2c1CC(C)(C)C2` [Example 53, 8-methoxy-N,2,2-trimethyl-7-[3-(pyrrolidin-1-yl)propoxy]-1H,2H,3H-cyclopenta[c]quinolin-4-amine formate], the IC50 worked out at 0.043 µM. Turning to `COc1cc2c3c(c(NC(C)C)nc2cc1OCCCN1CCCC1)CC(C)(C)C3` [Example 54, 8-methoxy-2,2-dimethyl-N-(propan-2-yl)-7-[3-(pyrrolidin-1-yl)propoxy]-1H,2H,3H-cyclopenta[c]quinolin-4-amine formate], the IC50 turned out to be 0.048 µM. Consider `COc1cc2c3c(c(NC4CC4)nc2cc1OCCCN1CCCC1)COCC3` [Example 55, N-cyclopropyl-9-methoxy-8-[3-(pyrrolidin-1-yl)propoxy]-1H,2H,4H-pyrano[3,4-c]-quinolin-5-amine formate], for which the IC50 worked out at 0.32 µM. The figure for `COc1cc2c(cc1OCCCN1CCCC1)nc(O)n1nccc21` [Example 56, 9-methoxy-8-[3-(pyrrolidin-1-yl)propoxy]pyrazolo[1,5-c]quinazolin-5-ol formate] is 0.46 µM; for `CNc1nc2cc(OCCCN3CCCC3)c(OC)cc2c2c1COCC2` [Example 57, 9-methoxy-N-methyl-8-[3-(pyrrolidin-1-yl)propoxy]-1H,2H,4H-pyrano[3,4-c]quinolin-5-amine formate] it is 0.21 µM; for `CCNc1nc2cc(OCCCN3CCCC3)c(OC)cc2c2c1COCC2` [Example 58, N-ethyl-9-methoxy-8-[3-(pyrrolidin-1-yl)propoxy]-1H,2H,4H-pyrano[3,4-c]quinolin-5-amine formate] it is 0.17 µM. Turning to `CNc1nc2cc(OCCCN3CCCC3)c(OC)cc2c2c1COC2` [Example 59, 8-methoxy-N-methyl-7-[3-(pyrrolidin-1-yl)propoxy]-1H,3H-furo[3,4-c]quinolin-4-amine formate], the IC50 came out at 0.23 µM. With `CCNc1nc2cc(OCCCN3CCCC3)c(OC)cc2c2c1COC2` [Example 60, N-ethyl-8-methoxy-7-[3-(pyrrolidin-1-yl)propoxy]-1H,3H-furo[3,4-c]quinolin-4-amine formate], the IC50 amounted to 0.21 µM. With `CNc1nc2cc(OCCCN3CCCC3)c(OC)cc2c2c1CC(O)CC2` (stereo not drawn) [Example 61, 2-methoxy-6-(methylamino)-3-[3-(pyrrolidin-1-yl)propoxy]-7,8,9,10-tetrahydrophenanthridin-8-ol formate], the IC50 worked out at 0.14 µM. As for `COc1cc2c3c(c(NC4(C(=O)O)CC4)nc2cc1OCCCN1CCCC1)CCC3` [Example 62, 1-({8-methoxy-7-[3-(pyrrolidin-1-yl)propoxy]-1H,2H,3H-cyclopenta[c]quinolin-4-yl}amino)cyclopropane-1-carboxylic acid formate], the figure is 0.12 µM; as for `COc1cc2c3c(c(NC(C)C)nc2c(F)c1OCCCN1CCCC1)CCC3` [Example 63, 6-fluoro-8-methoxy-N-(propan-2-yl)-7-[3-(pyrrolidin-1-yl)propoxy]-1H,2H,3H-cyclopenta[c]quinolin-4-amine formate], 2.3 µM.

As for `COc1cc2c3c(c(N[C@H]4C[C@H](O)C4)nc2cc1OCCCN1CCCC1)CCCC3` [Example 64, 3-({2-methoxy-3-[3-(pyrrolidin-1-yl)propoxy]-7,8,9,10-tetrahydrophenanthridin-6-yl}amino)cyclobutan-1-ol formate], the IC50 amounted to 0.5 µM.

With `COc1cc2c3c(c(NCC(F)(F)F)nc2cc1OCCCN1CCCC1)CCC3` [Example 65, 8-methoxy-7-[3-(pyrrolidin-1-yl)propoxy]-N-(2,2,2-trifluoroethyl)-1H,2H,3H-cyclopenta[c]quinolin-4-amine formate], the IC50 is 0.74 µM. Take `COc1cc2c3c(c(NCCC(F)(F)F)nc2cc1OCCCN1CCCC1)CCC3` [Example 66, 8-methoxy-7-[3-(pyrrolidin-1-yl)propoxy]-N-(3,3,3-trifluoropropyl)-1H,2H,3H-cyclopenta[c]quinolin-4-amine]: the IC50 stood at 0.22 µM. As for `COc1cc2c3c(c(NCC(F)(F)F)nc2cc1OCCCN1CCCC1)CCCC3` [Example 67, 2-methoxy-3-[3-(pyrrolidin-1-yl)propoxy]-N-(2,2,2-trifluoroethyl)-7,8,9,10-tetrahydrophenanthridin-6-amine formate], the figure is 2 µM; as for `COc1cc2c3c(c(NC(C)C)nc2cc1OCCCN1CCCC1)CC(O)CC3` (stereo not drawn) [Example 68, 2-methoxy-6-[(propan-2-yl)amino]-3-[3-(pyrrolidin-1-yl)propoxy]-7,8,9,10-tetrahydrophenanthridin-8-ol trifluoroacetate], 0.11 µM.

As to `COc1cc2c3c(c(N(C)c4ccccc4)nc2cc1OCCCN1CCCC1)CCC3` [Example 69, 8-methoxy-N-methyl-N-phenyl-7-[3-(pyrrolidin-1-yl)propoxy]-1H,2H,3H-cyclopenta[c]quinolin-4-amine trifluoroacetate], the IC50 is over 10 µM.
